Experiments:
[1] = system: neuraminidase (NA) of influenza A (H3N2) viruses; type: biochemical, influenza A (H3N2) virus
[2] = system: neuraminidase (NA) of influenza B viruses; type: biochemical, influenza B virus

Structure (SMILES)	Fold change in IC50 of test viruses, Approach #1 [1]	Fold change in IC50 of test viruses, Approach #2 [1]	Fold change in IC50 of test viruses, Approach #3 [1]	fold change in IC50 of outliers [1]	Fold change in IC50 of test viruses, Approach #3 [2]	fold change in IC50 of outliers [2]
CC(=O)N[C@H]1[C@H]([C@H](O)[C@H](O)CO)OC(C(=O)O)=C[C@@H]1N=C(N)N [Zanamivir, zanamivir]	132 (1) fold	132 (1) fold	91 (1) fold	23·75 (91) fold	5 (1) fold	5·11 (5) fold
CCOC(=O)C1=C[C@@H](OC(CC)CC)[C@H](NC(C)=O)[C@@H](N)C1 [Oseltamivir, Oseltamivir (carboxylate)]	–	–	–	–	6 (1) fold	53·02 (6) fold

— PMC4186475 (Influenza and Other Respiratory Viruses, 2013)
